The values below come from patent US20100239655A1, “TAURINE-BASED COMPOSITIONS AND THERAPEUTIC METHODS” (priority 2004, published 2010).

This assay has as its system normal human epidermal keratinocytes. The assay is described as follows: Protection of keratinocytes from ultraviolet induced cell death (apoptosis). The assay is classed as cell-based. The following applies: even at micromolar concentrations. An excerpt:
This effect is independent from and in addition to, the skin barrier repair and hydrating effects taurine exerts on dermal cells.

For the compound `NCCS(=O)(=O)O` [taurine, Taurine], the “protection from ultraviolet induced cell death (apoptosis)” value is on record as “can protect”.
